Experiments:
[1] = target: Cathepsin S (Homo sapiens, UniProt P25774); test: Inhibition of human recombinant cathepsin S by fluorescence assay
[2] = target: Procathepsin L (Homo sapiens, UniProt P07711); test: Inhibition of human recombinant cathepsin L by fluorescence assay
[3] = target: T1, Cathepsin K (Homo sapiens, UniProt P43235); test: Inhibition of human recombinant cathepsin K by fluorescence assay
T1 sequence (P43235 whole entry): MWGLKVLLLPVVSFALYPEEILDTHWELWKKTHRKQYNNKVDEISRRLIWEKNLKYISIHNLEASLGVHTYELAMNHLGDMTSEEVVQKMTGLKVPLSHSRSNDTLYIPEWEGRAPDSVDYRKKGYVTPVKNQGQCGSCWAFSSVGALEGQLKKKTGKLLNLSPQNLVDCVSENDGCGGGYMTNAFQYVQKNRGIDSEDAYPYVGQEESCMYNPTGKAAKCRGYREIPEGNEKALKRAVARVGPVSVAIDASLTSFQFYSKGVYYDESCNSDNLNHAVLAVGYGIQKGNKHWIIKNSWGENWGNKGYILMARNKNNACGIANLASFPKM

Chain of Procathepsin L (P07711 whole entry): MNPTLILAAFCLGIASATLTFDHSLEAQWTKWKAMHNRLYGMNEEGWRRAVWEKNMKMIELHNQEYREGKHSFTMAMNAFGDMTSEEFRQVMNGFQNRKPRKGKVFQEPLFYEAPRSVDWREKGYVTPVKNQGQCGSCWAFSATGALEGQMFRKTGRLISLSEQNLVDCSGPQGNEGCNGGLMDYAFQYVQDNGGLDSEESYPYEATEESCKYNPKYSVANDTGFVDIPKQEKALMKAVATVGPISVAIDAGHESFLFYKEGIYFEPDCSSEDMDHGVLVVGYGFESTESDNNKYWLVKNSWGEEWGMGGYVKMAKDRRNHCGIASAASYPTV
Chain of Cathepsin S (P25774 whole entry): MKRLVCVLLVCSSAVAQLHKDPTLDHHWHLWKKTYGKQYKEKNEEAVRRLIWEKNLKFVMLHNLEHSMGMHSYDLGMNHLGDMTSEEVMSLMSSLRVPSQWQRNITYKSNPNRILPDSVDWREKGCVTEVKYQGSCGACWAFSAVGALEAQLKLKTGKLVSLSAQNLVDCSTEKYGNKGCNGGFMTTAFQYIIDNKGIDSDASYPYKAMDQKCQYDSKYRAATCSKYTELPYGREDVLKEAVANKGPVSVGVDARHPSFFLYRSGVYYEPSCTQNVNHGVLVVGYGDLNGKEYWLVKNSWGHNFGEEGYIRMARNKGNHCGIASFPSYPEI

**Q.** With `CC(C)(C)CNc1nc(C#N)ncc1C#CCOc1cccnc1` as the molecule, how does the IC50 [1] read?
**A.** The IC50 was 460 nM.

**Q.** What about the IC50 [2] of the same molecule?
**A.** Its IC50 is 1000 nM.

**Q.** And the IC50 [3]?
**A.** The IC50 was 8.6 nM.

**Q.** What does the source list for `CC(C)(C)CN(Cc1ccc(C#CCN2CCC(N3CCCCC3)CC2)cc1)c1ccnc(C#N)n1`?
**A.** IC50 [1]: > 1000 nM; IC50 [2]: > 1000 nM; IC50 [3]: 3.6 nM

**Q.** How did the IC50 [1] turn out when `CN1CCN(c2ccc(CC#Cc3cnc(C#N)nc3NCC(C)(C)C)cc2)CC1` was run?
**A.** The IC50 was 760 nM.

**Q.** And the IC50 [2]?
**A.** Its IC50 is 980 nM.

**Q.** And the IC50 [3]?
**A.** The IC50 was 7.1 nM.

**Q.** With `CC(C)(C)CN(Cc1ccc(Cn2cncn2)cc1)c1ccnc(C#N)n1` as the molecule, how does the IC50 [1] read?
**A.** Its IC50 is greater than 1000 nM.

**Q.** What about the IC50 [2] of the same molecule?
**A.** The IC50 was greater than 1000 nM.

**Q.** What about the IC50 [3] of the same molecule?
**A.** The IC50 was 4.8 nM.

**Q.** `CC(C)(C)CNc1nc(C#N)ncc1C#CCN1CCN(S(=O)(=O)CCCCl)CC1` was tested. Which IC50 [1] did it give?
**A.** Its IC50 is 800 nM.

**Q.** And the IC50 [2]?
**A.** The IC50 was greater than 1000 nM.

**Q.** What about the IC50 [3] of the same molecule?
**A.** The IC50 was 3.7 nM.

**Q.** For `CC(C)(C)CN(Cc1ccc(C#CCn2cncn2)cc1)c1ccnc(C#N)n1`, which IC50 [1] is on record?
**A.** The IC50 was greater than 1000 nM.

**Q.** And the IC50 [2]?
**A.** The IC50 was greater than 1000 nM.

**Q.** What about the IC50 [3] of the same molecule?
**A.** Its IC50 is 8.6 nM.

**Q.** Which IC50 [1] does the source give for `CN1CCN(CC#Cc2ccc(CN(CC(C)(C)C)c3ccnc(C#N)n3)cc2)CC1` here?
**A.** The IC50 was greater than 1000 nM.

**Q.** And the IC50 [2]?
**A.** The IC50 was greater than 1000 nM.

**Q.** What about the IC50 [3] of the same molecule?
**A.** Its IC50 is 3.8 nM.

**Q.** `CC(C)(C)CNc1nc(C#N)ncc1C#CCn1cnc(Cl)c1Cl` was tested. Which IC50 [1] did it give?
**A.** Its IC50 is 68 nM.

**Q.** What about the IC50 [2] of the same molecule?
**A.** Its IC50 is 190 nM.

**Q.** And the IC50 [3]?
**A.** The IC50 was 7.2 nM.

**Q.** Which IC50 [1] does the source give for `CC(C)(C)CNc1nc(C#N)ncc1C#CCN1CCc2ccccc2C1` here?
**A.** Its IC50 is 840 nM.

**Q.** And the IC50 [2]?
**A.** Its IC50 is 150 nM.

**Q.** What about the IC50 [3] of the same molecule?
**A.** Its IC50 is 3.2 nM.

**Q.** How did the IC50 [1] turn out when `COc1ccc(S(=O)(=O)N2CCN(CC#Cc3cnc(C#N)nc3NCC(C)(C)C)CC2)cc1` was run?
**A.** The IC50 was greater than 1000 nM.

**Q.** What about the IC50 [2] of the same molecule?
**A.** Its IC50 is greater than 1000 nM.

**Q.** And the IC50 [3]?
**A.** The IC50 was 7.1 nM.

**Q.** Which IC50 [1] does the source give for `CC(=O)N1CCN(CC#Cc2ccc(CN(CC(C)(C)C)c3ccnc(C#N)n3)cc2)CC1` here?
**A.** Its IC50 is greater than 1000 nM.

**Q.** And the IC50 [2]?
**A.** The IC50 was greater than 1000 nM.

**Q.** What about the IC50 [3] of the same molecule?
**A.** The IC50 was 6.4 nM.

**Q.** For `CC(C)(C)CN(Cc1ccc(C#CCN2CCCCC2)cc1)c1ccnc(C#N)n1`, which IC50 [1] is on record?
**A.** Its IC50 is greater than 1000 nM.

**Q.** What about the IC50 [2] of the same molecule?
**A.** The IC50 was greater than 1000 nM.

**Q.** And the IC50 [3]?
**A.** The IC50 was 7.3 nM.

**Q.** How did the IC50 [1] turn out when `CC(C)(C)CN(Cc1ccc(I)cc1)c1ccnc(C#N)n1` was run?
**A.** The IC50 was greater than 1000 nM.

**Q.** What about the IC50 [2] of the same molecule?
**A.** Its IC50 is greater than 1000 nM.

**Q.** And the IC50 [3]?
**A.** Its IC50 is 19 nM.

**Q.** Which IC50 [1] does the source give for `CC(C)(C)CN(Cc1ccccc1)c1ccnc(C#N)n1` here?
**A.** Its IC50 is greater than 1000 nM.

**Q.** What about the IC50 [2] of the same molecule?
**A.** The IC50 was greater than 1000 nM.

**Q.** What about the IC50 [3] of the same molecule?
**A.** The IC50 was 69 nM.

**Q.** What does the source list for `CC(C)(C)CNc1nc(C#N)ncc1C#CCN1Cc2ccccc2C1`?
**A.** IC50 [1]: 920 nM; IC50 [2]: > 1000 nM; IC50 [3]: 10 nM

— ChEMBL document CHEMBL1144798, “New chemotypes for cathepsin K inhibitors” (Bioorg Med Chem Lett, 2008)
